The source of these data is BindingDB's records for patent US12110299 (Yungjin Pharm., 2024).

In the assay the target is Cyclin-dependent kinase 7 (Homo sapiens, UniProt P50613). Nature of the assay: CDK7 Kinase Activity Assay. On the procedure: Representative compounds of the present invention were assayed in vitro for CDK7 kinase-inhibitory activities using ADP-Glo platform. In detail, CDK7 kinase-inhibitory activity was measured using recombinant purified human CDK7 kinase (ThermoFisher, PV3868) and ADP Glo kinase assays kit (Promega, V9102). CDK7 kinase was diluted with 1× kinase reaction buffer (40 mM Tris-C1, pH 7.5, 20 mM MgCl2, 0.1 mg/ml BSA and 50 [M DTT) and added to 96 well plates (final concentration of CDK7 per reaction: 50 ng). The compound was finally treated to be a 1% DMSO aqueous solution, and a substrate cocktail containing ATP (final concentration of 90 [M) and 0.2 μg/μl of MBP (Myelin basic protein) in a total of 25 μl of reaction mass was added to 96 well plates, thereby initiating an enzymatic reaction. After 2 hours of incubation (30° C.), equivalent volume (25 μl per reaction) of ADP Glo was added and incubated (30° C.) at room temperature for 60 minutes. […] The kinase activity was measured by chemiluminescence method according to ADP Glo Kanease Assay Kit instruction manual, and the CDK7-inhibitory activity of the compounds according to the present invention was calculated. The result analysis of each compound was performed using Microsoft Excel, and IC50 values were calculated by Prism software.
Cyclin-dependent kinase 7, sequence (P50613 whole entry): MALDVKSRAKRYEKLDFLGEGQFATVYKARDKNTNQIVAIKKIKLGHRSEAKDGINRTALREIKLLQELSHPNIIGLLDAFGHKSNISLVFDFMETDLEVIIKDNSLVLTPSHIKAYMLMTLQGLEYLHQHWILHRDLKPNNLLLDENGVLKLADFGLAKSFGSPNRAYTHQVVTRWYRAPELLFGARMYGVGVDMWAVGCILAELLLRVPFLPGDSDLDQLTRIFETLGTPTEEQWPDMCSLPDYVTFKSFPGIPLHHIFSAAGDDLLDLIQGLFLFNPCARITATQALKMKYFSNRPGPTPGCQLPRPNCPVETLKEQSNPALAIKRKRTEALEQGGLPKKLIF

With `C[C@H](C(=O)Nc1ncc(Cl)s1)c1cccc(-c2cnc(NC(=O)/C=C/CN3CC4CC3CO4)cn2)c1` (stereo partly specified) [US12110299, Example 94], 14 nM corresponded to half-maximal inhibition (IC50).
